Data from patent US20140142127A1, “Stable Compositions of HMG-COA Reductase Inhibitors and Omega-3 Oils” (Almburg, LLC, priority 2012, published 2014).
Each block holds one compound with its values, some of them ahead of it.

Test: Storage stability of statin Ca salt suspensions in omega-3 oils, statin and lactone quantified by HPLC
Type: physicochemical
Description: (§1) Atorvastatin Ca (At) in ethyl ester of EPA (97% purity from Equatec) was prepared as follows: The drug substance was weighed into a glass vessel containing a magnetic stir bar and the oil was then added by volume to make a 10 mg/ml suspension. The clear oil made an off-white suspension with the drug, which was uniformly dispersed by magnetic stirring. Each formulation also had 1% BHA via ethanol solution (1% of volume of the final suspension from a 100 mg/mL solution of BHA in anhydrous ethanol, resulting in 1 mg/mL BHA or 0.1% w/V). While stirring the suspensions were individually transferred by mass into 250 ul glass vial inserts to about 260 mg, which was essentially a complete fill. Vials were crimped with a teflon-backed seal and placed on stability stations: 25 C/60% RH, 40 C/75% RH and −20 C for reference. Samples were pulled at monthly intervals and prepared for HPLC analysis using a C18 column, samples were transferred, fully dissolved and diluted to 10.0 ml with dry DMF. At and corresponding lactone were quantified from HPLC chromatograms against standards of the At API. Integration was done using the Perkin Elmer software supplied with the HPLC system.
as §1, with “omega-3 free fatty acid” for “ethyl ester of EPA (97% purity from Equatec)”
as §1, with “Rosuvastatin” for “Atorvastatin”, “(Ro)” for “(At)”
RosuvastatinCa (Ro) in omega-3 free fatty acid was prepared as follows: The drug substance was weighed into a glass vessel containing a magnetic stir bar and the oil was then added by volume to make a 10 mg/ml suspension. The clear oil made an off-white suspension with the drug, which was uniformly dispersed by magnetic stirring. […]

[1] = Ethyl ester omega-3 oil, additive CaCO3, 25° C./60% RH, 3 months
[2] = Ethyl ester omega-3 oil, additive CaCO3, 40° C./75% RH, 1 month
[3] = Ethyl ester omega-3 oil, additive CaCO3, 40° C./75% RH, 3 months
[4] = Ethyl ester omega-3 oil, additive CaCl2, 25° C./60% RH, 3 months
[5] = Ethyl ester omega-3 oil, additive CaCl2, 40° C./75% RH, 1 month
[6] = Ethyl ester omega-3 oil, additive CaCl2, 40° C./75% RH, 3 months
[7] = Ethyl ester omega-3 oil, additive CaHPO4, 25° C./60% RH, 3 months
[8] = Ethyl ester omega-3 oil, additive CaHPO4, 40° C./75% RH, 1 month
[9] = Ethyl ester omega-3 oil, additive CaHPO4, 40° C./75% RH, 3 months
[10] = Ethyl ester omega-3 oil, additive None, 40° C./75% RH, 1 month
[11] = Free acid omega-3 oil, additive CaCO3, 25° C./60% RH, 3 months
[12] = Free acid omega-3 oil, additive CaCO3, 40° C./75% RH, 1 month
[13] = Free acid omega-3 oil, additive CaCO3, 40° C./75% RH, 3 months
[14] = Free acid omega-3 oil, additive CaCl2, 25° C./60% RH, 3 months
[15] = Free acid omega-3 oil, additive CaCl2, 40° C./75% RH, 1 month
[16] = Free acid omega-3 oil, additive CaCl2, 40° C./75% RH, 3 months
[17] = Free acid omega-3 oil, additive CaHPO4, 25° C./60% RH, 3 months
[18] = Free acid omega-3 oil, additive CaHPO4, 40° C./75% RH, 1 month
[19] = Free acid omega-3 oil, additive CaHPO4, 40° C./75% RH, 3 months
[20] = Free acid omega-3 oil, additive None, 40° C./75% RH, 1 month
[21] = Triglyceride omega-3 oil, additive None, 40° C./75% RH, 1 month

At Lactone [1]: 0.26%
Atorvastatin [1]: 110.7%
At Lactone [2]: 0.34%
Atorvastatin [2]: 97.6%
At Lactone [3]: 1.87%
Atorvastatin [3]: 111.8%
At Lactone [4]: 0.35%
Atorvastatin [4]: 98.2%
At Lactone [5]: 0.06%
Atorvastatin [5]: 103.2%
At Lactone [6]: 0.48%
Atorvastatin [6]: 97.1%
At Lactone [7]: 0.38%
Atorvastatin [7]: 98.0%
At Lactone [8]: 0.21%
Atorvastatin [8]: 100.9%
At Lactone [9]: 4.80%
Atorvastatin [9]: 90.8%
At Lactone [10]: 0.18%
Atorvastatin [10]: 98.0%
At Lactone [11]: 24.6%
Atorvastatin [11]: 77.3%
At Lactone [12]: 1.5%
Atorvastatin [12]: 101.8%
At Lactone [13]: 35.2%
Atorvastatin [13]: 76.4%
At Lactone [14]: 18.6%
Atorvastatin [14]: 84.2%
At Lactone [15]: 13.5%
Atorvastatin [15]: 87.3%
At Lactone [16]: 19.8%
Atorvastatin [16]: 90.7%
At Lactone [17]: 32.2%
Atorvastatin [17]: 80.9%
At Lactone [18]: 13.6%
Atorvastatin [18]: 99.5%
At Lactone [19]: 25.2%
Atorvastatin [19]: 92.0%
At Lactone [20]: 75.6%
Atorvastatin [20]: 22.8%
At Lactone [21]: 4.6%
Atorvastatin [21]: 85.3%
SMILES: CC(C)c1c(C(=O)Nc2ccccc2)c(-c2ccccc2)c(-c2ccc(F)cc2)n1CC[C@@H](O)C[C@@H](O)CC(=O)O [Atorvastatin, Atorvastatin Ca]

Ro Lactone [1]: 0.31%
Rosuvastatin [1]: 101.9%
Ro Lactone [2]: 0.79%
Rosuvastatin [2]: 79.8%
Ro Lactone [3]: 5.56%
Rosuvastatin [3]: 86.1%
Ro Lactone [4]: 0.23%
Rosuvastatin [4]: 110.4%
Ro Lactone [5]: 0.09%
Rosuvastatin [5]: 93.1%
Ro Lactone [6]: 1.03%
Rosuvastatin [6]: 108.8%
Ro Lactone [7]: 0.26%
Rosuvastatin [7]: 98.2%
Rosuvastatin [8]: 96.2%
Ro Lactone [9]: 9.75%
Rosuvastatin [9]: 83.7%
Ro Lactone [10]: 0.92%
Rosuvastatin [10]: 95.0%
Ro Lactone [11]: 1.0%
Rosuvastatin [11]: 100.2%
Ro Lactone [12]: 0.25%
Rosuvastatin [12]: 105.4%
Ro Lactone [13]: 0.83%
Rosuvastatin [13]: 92.4%
Ro Lactone [14]: 0.44%
Rosuvastatin [14]: 101.9%
Ro Lactone [15]: 0.28%
Rosuvastatin [15]: 105.2%
Ro Lactone [16]: 0.39%
Rosuvastatin [16]: 98.7%
Ro Lactone [17]: 0.74%
Rosuvastatin [17]: 99.9%
Ro Lactone [18]: 0.17%
Rosuvastatin [18]: 99.5%
Ro Lactone [19]: 0.69%
Rosuvastatin [19]: 102.2%
Ro Lactone [20]: 60.0%
Rosuvastatin [20]: 39.1%
Ro Lactone [21]: 2.5%
Rosuvastatin [21]: 100.6%
SMILES: CC(C)c1nc(N(C)S(C)(=O)=O)nc(-c2ccc(F)cc2)c1/C=C/[C@@H](O)C[C@@H](O)CC(=O)O [Rosuvastatin, Rosuvastatin Ca]
